Key:
Type in all cases: cell-based
[1] = tested on: Wnt activity (Wnt-responsive human Sp5 promoter, TCF/LEF binding sites) in SW480 colon carcinoma cells; experiment: Wnt activity screening assay: Sp5-Luc luciferase reporter gene in SW480 cells; conditions: for EC50: 10-point dose-response from 10 μM, incubated overnight; for inhibition at 10 µM: given for EC50 of >10 μM, read-out: percent inhibition at 10 μM
In short: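 SW480 cells stably transduced with an Sp5 promoter (eight TCF/LEF sites)–firefly luciferase lentiviral reporter, plated at 4,000 cells/well in 1% FBS medium with compounds (10-point 1:3 series from 10 μM, 0.1% DMSO) overnight at 37 °C. BrightGlo luminescence normalised to DMSO; EC50 by four-parameter fit, else % inhibition at 10 μM.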

[2] = tested on: SW480 colon cancer cells; experiment: Cell viability assay (CellTiter-Blue), four days; conditions: Homo sapiens, 96 h; for inhibition at 10 µM: read-out: percent inhibition at 10 μM (given for EC50 of >10 μM); for EC50: CellTiter-Blue cell viability
In short: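 Resazurin reduction (Ex 560/Em 590 nm, ~3 h reagent incubation) served as the viability read-out after SW480 cells were treated for four days at 37 °C. Doses ran from 10 μM down to 0.0045 μM in eight 1:3 steps. Curves fitted non-linearly for EC50, else % inhibition at 10 μM reported.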

[3] = tested on: IL-6 in human monocyte cell line (THP-1 cells); experiment: IL-6 inhibition in LPS-stimulated THP-1 cells (HTRF); conditions: IL-6 in LPS-stimulated THP-1 cells; for EC50: HTRF; for inhibition at 10 µM: read-out: percent inhibition in brackets beside EC50 >10 μM
In short: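 Readout is the 665/620 nm HTRF ratio for secreted IL-6, normalized to DMSO wells, with EC50 from a variable-slope four-parameter fit, or % inhibition at 10 μM when above 10 μM. Cells (1% FBS, 24 h beforehand) got compound for 2 h, then LPS 500 ng/mL for 22 h at 37° C; top dose 10 μM, 0.1% DMSO.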

In the case of COc1cccc(-c2nccc3[nH]c(-c4n[nH]c5ccc(-c6cncc(NC(=O)CC(C)(C)C)c6)nc45)nc23)c1 [Compound 1006, N-(5-(3-(4-(3-methoxyphenyl)-1H-imidazo[4,5-c]pyridin-2-yl)-1H-pyrazolo [4,3-b]pyridin-5-yl)pyridin-3-yl)-3,3-dimethylbutanamide], the EC50 [1] is reported as > 10 µM, the inhibition at 10 µM [1] is reported as 16.6% and the inhibition at 10 µM [2] is reported as 0%. The EC50 [2] was > 10 µM, the EC50 [3] was > 10 µM and the inhibition at 10 µM [3] was 32.3%.
In the case of c1cncc(-c2ccc3[nH]nc(-c4nc5cnccc5[nH]4)c3n2)c1 [Compound 256, 3-(1H-Imidazo[4,5-c]pyridin-2-yl)-5-(pyridin-3-yl)-1H-pyrazolo[4,3-b]pyridine], the EC50 [1] is reported as > 10 µM, the inhibition at 10 µM [1] is reported as 21.9% and the inhibition at 10 µM [2] is reported as 1.8%. For the same molecule, the EC50 [2] was > 10 µM, the EC50 [3] was > 10 µM and the inhibition at 10 µM [3] was 35.5%.
For COc1cncc(-c2ccc3[nH]nc(-c4nc5c(-c6ccoc6)nccc5[nH]4)c3n2)c1 [Compound 692, 3-(4-(Furan-3-yl)-1H-imidazo[4,5-c]pyridin-2-yl)-5-(5-methoxypyridin-3-yl)-1H-pyrazolo[4,3-b]pyridine], the EC50 [1] was 0.745 µM, the EC50 [2] was 1.57 µM and the EC50 [3] was > 10 µM. The inhibition at 10 µM [3] was 44%.
c1ccc(CNCc2cncc(-c3ccc4[nH]nc(-c5nc6c(-c7ccsc7)nccc6[nH]5)c4n3)c2)cc1 [Compound 304, N-Benzyl-1-(5-(3-(4-(thiophen-3-yl)-1H-imidazo[4,5-c]pyridin-2-yl)-1H-pyrazolo [4,3-b]pyridin-5-yl)pyridin-3-yl)methanamine] was tested, and the EC50 [1] was 3.65 µM, the EC50 [2] was 3.91 µM and the EC50 [3] was > 10 µM. For the same molecule, the inhibition at 10 µM [3] was 0%.
With Cc1cn(-c2nccc3[nH]c(-c4n[nH]c5ccc(-c6cncc(NC(=O)CC(C)C)c6)nc45)nc23)cn1 [Compound 198] the EC50 [1] was 3.98 µM, the EC50 [2] was 8.48 µM and the EC50 [3] was > 10 µM. For the same molecule, the inhibition at 10 µM [3] was 25.2%.
Work on c1cc2[nH]c(-c3n[nH]c4ccc(-c5cncc(OCCN6CCCC6)c5)nc34)nc2c(-c2ccoc2)n1 [Compound 690, 3-(4-(Furan-3-yl)-1H-imidazo[4,5-c]pyridin-2-yl)-5-(5-(2-(pyrrolidin-1-yl)ethoxy)pyridin-3-yl)-1H-pyrazolo[4,3-b]pyridine] yielded an EC50 [1] of 3.83 µM, an EC50 [2] of 4.3 µM and an EC50 [3] of 1.46 µM.
In the case of CN(C)Cc1cncc(-c2ccc3[nH]nc(-c4nc5c(N6CCCCC6)nccc5[nH]4)c3n2)c1 [Compound 181, N,N-Dimethyl-1-(5-(3-(4-(piperidin-1-yl)-1H-imidazo[4,5-c]pyridin-2-yl)-1H-pyrazolo [4,3-b]pyridin-5-yl)pyridin-3-yl)methanamine], the EC50 [1] is reported as > 10 µM, the inhibition at 10 µM [1] is reported as 8.4% and the EC50 [2] is reported as 4.69 µM. For the same molecule, the EC50 [3] was > 10 µM and the inhibition at 10 µM [3] was 36.5%.
Fc1ccc(-c2nccc3[nH]c(-c4n[nH]c5ccc(-c6cncnc6)nc45)nc23)cc1 [Compound 55, 3-(4-(4-Fluorophenyl)-1H-imidazo[4,5-c]pyridin-2-yl)-5-(pyrimidin-5-yl)-1H-pyrazolo[4,3-b]pyridine] was tested, and the EC50 [1] was 1.22 µM, the inhibition at 10 µM [2] was 15.1% and the EC50 [2] was > 10 µM. For the same molecule, the EC50 [3] was > 10 µM and the inhibition at 10 µM [3] was 27.3%.
CC(C)C(=O)Nc1cncc(-c2ccc3[nH]nc(-c4nc5c(-c6ccccc6F)nccc5[nH]4)c3n2)c1 [Compound 65, N-(5-(3-(4-(2-fluorophenyl)-1H-imidazo[4,5-c]pyridin-2-yl)-1H-pyrazolo [4,3-b]pyridin-5-yl)pyridin-3-yl)isobutyramide] was tested, and the EC50 [1] was > 10 µM, the inhibition at 10 µM [1] was 2.7% and the inhibition at 10 µM [2] was 8.7%. The EC50 [2] was > 10 µM, the EC50 [3] was > 10 µM and the inhibition at 10 µM [3] was 40.4%.
For Cn1cc(-c2ccc3[nH]nc(-c4nc5c(N6CCCCC6)nccc5[nH]4)c3n2)c(CO)n1 [Compound 1133, (1-Methyl-4-(3-(4-(piperidin-1-yl)-1H-imidazo[4,5-c]pyridin-2-yl)-1H-pyrazolo [4,3-b]pyridin-5-yl)-1H-pyrazol-3-yl)methanol], the EC50 [1] was > 10 µM, the inhibition at 10 µM [1] was 49.6% and the inhibition at 10 µM [2] was 28.2%. For the same molecule, the EC50 [2] was > 10 µM, the EC50 [3] was > 10 µM and the inhibition at 10 µM [3] was 0%.
In the case of Cn1cc(-c2ccc3[nH]nc(-c4nc5c(-c6cc(F)cc(CNS(C)(=O)=O)c6)nccc5[nH]4)c3n2)cn1 [Compound 764, N-(3-Fluoro-5-(2-(5-(1-methyl-1H-pyrazol-4-yl)-1H-pyrazolo [4,3-b]pyridin-3-yl)-1H-imidazo[4,5-c]pyridin-4-yl)benzyl)methanesulfonamide], the EC50 [1] is reported as 0.837 µM, the EC50 [2] is reported as 5.88 µM and the EC50 [3] is reported as > 10 µM. It also gave an inhibition at 10 µM [3] of 0%.
CN1CCN(c2nccc3[nH]c(-c4n[nH]c5ccc(-c6cncc(N)c6)nc45)nc23)CC1 [Compound 227, 5-(3-(4-(4-Methylpiperazin-1-yl)-1H-imidazo[4,5-c]pyridin-2-yl)-1H-pyrazolo[4,3-b]pyridin-5-yl)pyridin-3-amine] was tested, and the EC50 [1] was > 10 µM, the inhibition at 10 µM [1] was 15.3% and the inhibition at 10 µM [2] was 0%. The EC50 [2] was > 10 µM, the EC50 [3] was > 10 µM and the inhibition at 10 µM [3] was 32.3%.
For CCCC(=O)Nc1cncc(-c2ccc3[nH]nc(-c4nc5c(-c6ccsc6)nccc5[nH]4)c3n2)c1 [Compound 297, N-(5-(3-(4-(Thiophen-3-yl)-1H-imidazo[4,5-c]pyridin-2-yl)-1H-pyrazolo [4,3-b]pyridin-5-yl)pyridin-3-yl)butyramide], the EC50 [1] was 2.09 µM, the EC50 [2] was 1.1 µM and the EC50 [3] was 3.67 µM.
O=C(Nc1cncc(-c2ccc3[nH]nc(-c4nc5c(-c6ccccc6F)nccc5[nH]4)c3n2)c1)C1CCCC1 [Compound 78, N-(5-(3-(4-(2-Fluorophenyl)-1H-imidazo[4,5-c]pyridin-2-yl)-1H-pyrazolo [4,3-b]pyridin-5-yl)pyridin-3-yl)cyclopentanecarboxamide] was tested, and the EC50 [1] was > 10 µM, the inhibition at 10 µM [1] was 14.8% and the inhibition at 10 µM [2] was 19.8%. The EC50 [2] was > 10 µM, the EC50 [3] was > 10 µM and the inhibition at 10 µM [3] was 29.7%.
Cc1ncc(-c2ccc3[nH]nc(-c4nc5c(-c6cccc(F)c6)nccc5[nH]4)c3n2)s1 [Compound 1126, 5-(3-(4-(3-Fluorophenyl)-1H-imidazo[4,5-c]pyridin-2-yl)-1H-pyrazolo[4,3-b]pyridin-5-yl)-2-methylthiazole] was tested, and the EC50 [1] was 0.235 µM, the inhibition at 10 µM [2] was 26.6% and the EC50 [2] was > 10 µM. For the same molecule, the EC50 [3] was > 10 µM and the inhibition at 10 µM [3] was 0%.
In the case of COc1cccc(-c2nccc3[nH]c(-c4n[nH]c5ccc(-c6cncc(O)c6)nc45)nc23)c1 [Compound 1030, 5-(3-(4-(3-Methoxyphenyl)-1H-imidazo[4,5-c]pyridin-2-yl)-1H-pyrazolo [4,3-b]pyridin-5-yl)pyridin-3-ol], the EC50 [1] is reported as > 10 µM, the inhibition at 10 µM [1] is reported as 14.1% and the inhibition at 10 µM [2] is reported as 6%. The EC50 [2] was > 10 µM and the EC50 [3] was 0.493 µM.
With Cc1ccc(-c2nccc3[nH]c(-c4n[nH]c5ccc(-c6cncc(OC7CCCCC7)c6)nc45)nc23)s1 [Compound 735, 5-(5-(Cyclohexyloxy)pyridin-3-yl)-3-(4-(5-methylthiophen-2-yl)-1H-imidazo[4,5-c]pyridin-2-yl)-1H-pyrazolo[4,3-b]pyridine] the EC50 [1] was 1.04 µM, the inhibition at 10 µM [2] was 0% and the EC50 [2] was > 10 µM. For the same molecule, the EC50 [3] was > 10 µM and the inhibition at 10 µM [3] was 18.8%.
c1cc2[nH]c(-c3n[nH]c4ccc(-c5cncc(OC6CCNCC6)c5)nc34)nc2cn1 [Compound 656, 3-(1H-Imidazo[4,5-c]pyridin-2-yl)-5-(5-(piperidin-4-yloxy)pyridin-3-yl)-1H-pyrazolo[4,3-b]pyridine] was tested, and the EC50 [1] was > 10 µM, the inhibition at 10 µM [1] was 15.4% and the inhibition at 10 µM [2] was 10.9%. The EC50 [2] was > 10 µM, the EC50 [3] was > 10 µM and the inhibition at 10 µM [3] was 41.3%.
With Cc1ncc(-c2ccc3[nH]nc(-c4nc5c(-c6ccoc6)nccc5[nH]4)c3n2)n1C [Compound 685, 5-(1,2-Dimethyl-1H-imidazol-5-yl)-3-(4-(furan-3-yl)-1H-imidazo[4,5-c]pyridin-2-yl)-1H-pyrazolo[4,3-b]pyridine] the EC50 [1] was 0.211 µM, the EC50 [2] was 0.624 µM and the EC50 [3] was > 10 µM. For the same molecule, the inhibition at 10 µM [3] was 30.2%.
For CN1CCN(c2nccc3[nH]c(-c4n[nH]c5ccc(-c6cncc(NC(=O)C7CCCC7)c6)nc45)nc23)CC1 [Compound 246, N-(5-(3-(4-(4-Methylpiperazin-1-yl)-1H-imidazo[4,5-c]pyridin-2-yl)-1H-pyrazolo [4,3-b]pyridin-5-yl)pyridin-3-yl)cyclopentanecarboxamide], the EC50 [1] was > 10 µM, the inhibition at 10 µM [1] was 15% and the inhibition at 10 µM [2] was 0%. The EC50 [2] was > 10 µM, the EC50 [3] was > 10 µM and the inhibition at 10 µM [3] was 37.7%.
With O=C(Nc1cncc(-c2ccc3[nH]nc(-c4nc5c(-c6ccc(F)cc6)nccc5[nH]4)c3n2)c1)C1CCC1 [Compound 49, N-(5-(3-(4-(4-Fluorophenyl)-1H-imidazo[4,5-c]pyridin-2-yl)-1H-pyrazolo [4,3-b]pyridin-5-yl)pyridin-3-yl)cyclobutanecarboxamide] the EC50 [1] was 4.08 µM, the EC50 [2] was 9.29 µM and the EC50 [3] was > 10 µM. It also gave an inhibition at 10 µM [3] of 0%.

From US10195185B2, “3-(1H-imidazo[4,5-C]pyridin-2-yl)-1H-pyrazolo[4,3-B]pyridines and therapeutic uses thereof” (Samumed, LLC, priority 2015, dated 2019)
